Patent publication US20100203531A1, “PREDICTING RESPONSIVENESS TO TEMOZOLOMIDE” (priority 2007, published 2010)

Key:
Assay type in all cases: in vivo, human
GBM6 xenograft = test: Orthotopic intracranial xenograft survival, GBM6
Protocol: (§1) In vivo sensitivity of GBM lines to TMZ: To address whether MGMT methylation or polypeptide expression status are predictive of TMZ responsiveness, the effects of TMZ therapy on survival were evaluated in the panel of xenografts using an orthotopic therapy model. […] This TMZ dosing regimen provides the equivalent dose-exposure to TMZ as the standard adjuvant TMZ dosing regimen for GBM patients of 200 mg/m^2×5 days. All mice were followed until reaching a moribund state, and the relative prolongation of survival following TMZ treatment was calculated for each line relative to placebo treatment (Table 1). […] Further analysis of the relationship between TMZ responsiveness and MGMT methylation status in 17 xenograft lines was conducted by comparing the distribution of median survival prolongation results for methylation-positive and methylation-negative groups of xenografts. From this analysis, MGMT methylation was modestly associated with increased TMZ sensitivity (FIG. 2, p=0.039, two-sample rank sum test). In a similar analysis of MGMT polypeptide expression levels, high levels of MGMT polypeptide expression were invariably associated with relative TMZ resistance, and the absence of MGMT polypeptide expression was associated with significant TMZ sensitivity (r=−0.73, p=0.005). […] While p53, PTEN and EGFR function have been linked to TMZ sensitivity in some models, no correlation between genetic alterations of these genes and TMZ responsiveness was observed.
(§2) Orthotopic model: Therapy evaluations were conducted using an orthotopic tumor model as described elsewhere (Sarkaria et al., Clin Cancer Res, 12:2264-2271 (2006), Giannini et al., Neuro-Oncology, 7:164-176, (2005)). Athymic nude mice (NCI, Frederick, Md.) with established intracranial tumors were randomized into groups of 8 to 10 mice each and treatment was initiated 2 weeks before mice were expected to become moribund. TMZ was purchased from the Mayo Clinic Pharmacy, suspended in Ora-plus (Paddock Laboratories, Minneapolis. […] Mice were observed daily and euthanized when moribund.
(§3) Statistical analysis: Survival distributions were estimated using the Kaplan-Meier method. The log rank test was used to compare survival across treatment groups. All GBM experiments were pooled and Classification and Regression Tree analysis (CART) was used to identify which CpG sites in the MS-PCR assay (CpG sites 78-82, 86-89) were predictive of overall survival in TMZ treated mice. The two-sample rank sum test was used to compare relative differences in survival relative to MGMT MS-PCR status or CpG89 methylation status. Spearman's correlation coefficient was used to assess the association of relative median survival and protein expression levels of MGMT relative to 13-actin.

GBM8 xenograft = test: Orthotopic intracranial xenograft survival, GBM8
Protocol: (§4) In vivo sensitivity of GBM lines to TMZ: To address whether MGMT methylation or polypeptide expression status are predictive of TMZ responsiveness, the effects of TMZ therapy on survival were evaluated in the panel of xenografts using an orthotopic therapy model. Mice with established intracranial xenografts were treated with 66 mg/kg TMZ or placebo daily for 5 days by oral gavage. This TMZ dosing regimen provides the equivalent dose-exposure to TMZ as the standard adjuvant TMZ dosing regimen for GBM patients of 200 mg/m^2×5 days. All mice were followed until reaching a moribund state, and the relative prolongation of survival following TMZ treatment was calculated for each line relative to placebo treatment (Table 1). […] Further analysis of the relationship between TMZ responsiveness and MGMT methylation status in 17 xenograft lines was conducted by comparing the distribution of median survival prolongation results for methylation-positive and methylation-negative groups of xenografts. From this analysis, MGMT methylation was modestly associated with increased TMZ sensitivity (FIG. 2, p=0.039, two-sample rank sum test). In a similar analysis of MGMT polypeptide expression levels, high levels of MGMT polypeptide expression were invariably associated with relative TMZ resistance, and the absence of MGMT polypeptide expression was associated with significant TMZ sensitivity (r=−0.73, p=0.005). […] While p53, PTEN and EGFR function have been linked to TMZ sensitivity in some models, no correlation between genetic alterations of these genes and TMZ responsiveness was observed.
Orthotopic model: Therapy evaluations were conducted using an orthotopic tumor model as described elsewhere (Sarkaria et al., Clin Cancer Res, 12:2264-2271 (2006), Giannini et al., Neuro-Oncology, 7:164-176, (2005)). Athymic nude mice (NCI, Frederick, Md.) with established intracranial tumors were randomized into groups of 8 to 10 mice each and treatment was initiated 2 weeks before mice were expected to become moribund. TMZ was purchased from the Mayo Clinic Pharmacy, suspended in Ora-plus (Paddock Laboratories, Minneapolis. MN), and administered by oral gavage at 66 mg/kg for 5 days. Mice were observed daily and euthanized when moribund.
as §3, with “Spearman's correlation coefficient was used to assess the association of relative median survival and protein expression levels of MGMT relative to 13-actin.” left out

GBM38 xenograft = test: Orthotopic intracranial xenograft survival, GBM38
Protocol: In vivo sensitivity of GBM lines to TMZ: To address whether MGMT methylation or polypeptide expression status are predictive of TMZ responsiveness, the effects of TMZ therapy on survival were evaluated in the panel of xenografts using an orthotopic therapy model. Mice with established intracranial xenografts were treated with 66 mg/kg TMZ or placebo daily for 5 days by oral gavage. This TMZ dosing regimen provides the equivalent dose-exposure to TMZ as the standard adjuvant TMZ dosing regimen for GBM patients of 200 mg/m^2×5 days. All mice were followed until reaching a moribund state, and the relative prolongation of survival following TMZ treatment was calculated for each line relative to placebo treatment (Table 1). […] Further analysis of the relationship between TMZ responsiveness and MGMT methylation status in 17 xenograft lines was conducted by comparing the distribution of median survival prolongation results for methylation-positive and methylation-negative groups of xenografts. From this analysis, MGMT methylation was modestly associated with increased TMZ sensitivity (FIG. 2, p=0.039, two-sample rank sum test). […]

[1] = tested on: GBM14 cells transduced with a luciferase-expressing lentiviral construct; test: Salvage TMZ therapy in intracranial GBM14-luciferase tumors with bioluminescence imaging
Protocol: Development of resistance to TMZ during in vivo therapy: The effect of salvage TMZ therapy in recurrent tumors was studied in the GBM14 xenograft line with the assistance of bioluminescence imaging (BLI). In this study, GBM14 cells were transduced with a luciferase-expressing lentiviral construct and then used to establish intracranial tumors. Mice were randomized into three groups: a) vehicle control, b) single dose of 120 mg/kg TMZ, c) initial TMZ dose followed by a second TMZ dose at the time of tumor regrowth, as indicated by BLI (FIGS. 7A and B). […] Extrapolating to the clinic, the apparent development of TMZ resistance during the course of treatment is reminiscent of patients who experience an initial response to TMZ therapy but then develop progressive disease during latter cycles of TMZ treatment.

GBM44 xenograft = test: Orthotopic intracranial xenograft survival, GBM44
Protocol: as §1, §2, §3

GBM10 xenograft = test: Orthotopic intracranial xenograft survival, GBM10
Protocol: as §4, §2, §3

In the case of `Cn1nnc2c(C(N)=O)ncn2c1=O` [TMZ, Temozolomide], the “Survival Prolongation” value (GBM6 xenograft; GBM6, median survival relative to placebo, 66 mg/kg oral for 5 days (Table 3)) was 37%, the Survival benefit (GBM6 xenograft; GBM6, prolongation of median survival relative to placebo, TMZ 66 mg/kg oral x5 days) was 37% and the Survival benefit (GBM6 xenograft; GBM6 generation 20, TMZ 120 mg/kg for 5 days, intracranial) was 67%. It also gave a Survival benefit (GBM6 xenograft; GBM6 generation 24, TMZ 66 mg/kg for 5 days, intracranial) of 21%, a TMZ median survival (GBM6 xenograft; GBM6 intracranial xenograft, nude mice, TMZ 66 mg/kg oral daily x5 days) of 56 and a Temozolomide median survival (GBM6 xenograft; GBM6 intracranial, athymic nude mice, 66 mg/kg oral gavage for 5 days (Table 3)) of 56. For the same molecule, the “Survival Prolongation” value (GBM8 xenograft; GBM8, median survival relative to placebo, 66 mg/kg oral for 5 days (Table 3)) was 110%, the Survival benefit (GBM8 xenograft; GBM8, prolongation of median survival relative to placebo, TMZ 66 mg/kg oral x5 days) was 110% and the TMZ median survival (GBM8 xenograft; GBM8 intracranial xenograft, nude mice, TMZ 66 mg/kg oral daily x5 days) was 124. It also gave a Temozolomide median survival (GBM8 xenograft; GBM8 intracranial, athymic nude mice, 66 mg/kg oral gavage for 5 days (Table 3)) of 124, a Survival benefit (GBM38 xenograft; GBM38, prolongation of median survival relative to placebo, TMZ 66 mg/kg oral x5 days) of 45% and a TMZ median survival (GBM38 xenograft; GBM38 intracranial xenograft, nude mice, TMZ 66 mg/kg oral daily x5 days) of 80. The “additional survival from second TMZ dose” value ([1]; second TMZ dose at time of tumor regrowth/recurrence, beyond single-dose prolongation) was 22 days, the “survival prolongation with a single TMZ dose” value ([1]; single dose of 120 mg/kg TMZ, relative to placebo/vehicle, intracranial GBM14-luciferase) was 56 days and the “Survival Prolongation” value (GBM44 xenograft; GBM44, median survival relative to placebo, 66 mg/kg oral for 5 days (Table 3)) was 60%. The Survival benefit (GBM44 xenograft; GBM44, prolongation of median survival relative to placebo, TMZ 66 mg/kg oral x5 days) was 60%, the Survival benefit (GBM44 xenograft; GBM44 generation 5, TMZ 120 mg/kg for 5 days, intracranial) was −7% and the Survival benefit (GBM44 xenograft; GBM44 generation 12, TMZ 66 mg/kg for 5 days, intracranial) was 60%. The TMZ median survival (GBM44 xenograft; GBM44 intracranial xenograft, nude mice, TMZ 66 mg/kg oral daily x5 days) was 56, the Temozolomide median survival (GBM44 xenograft; GBM44 intracranial, athymic nude mice, 66 mg/kg oral gavage for 5 days (Table 3)) was 56 and the “Survival Prolongation” value (GBM10 xenograft; GBM10, median survival relative to placebo, 66 mg/kg oral for 5 days (Table 3)) was 34%. For the same molecule, the Survival benefit (GBM10 xenograft; GBM10, prolongation of median survival relative to placebo, TMZ 66 mg/kg oral x5 days) was 34%, the Survival benefit (GBM10 xenograft; GBM10 generation 8, TMZ 120 mg/kg for 5 days, intracranial) was 6% and the Survival benefit (GBM10 xenograft; GBM10 generation 19, TMZ 66 mg/kg for 5 days, intracranial) was 34%. The TMZ median survival (GBM10 xenograft; GBM10 intracranial xenograft, nude mice, TMZ 66 mg/kg oral daily x5 days) was 55 and the Temozolomide median survival (GBM10 xenograft; GBM10 intracranial, athymic nude mice, 66 mg/kg oral gavage for 5 days (Table 3)) was 55.
